How the values were obtained:
[1] = test system: HCT-116 MTAP(-/-) deficient cells; experiment: Inhibition of proliferation of HCT-116 MTAP(-/-) deficient cells (Cell-Titer Glo); format: cell-based; conditions: 8 days
Method in brief: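 Cells in log-phase growth, RPMI-1640 with 10% FBS, seeded and left overnight at 37°C, 5% CO2. Compound tested at 0–10,000 nM (10 points, 3-fold, 0.1% DMSO) for 8 days at 37°C, 5% CO2. Viability read by CellTiter-Glo luminescence.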

[2] = test system: HCT-116 MTAP wild-type cells; experiment: Inhibition of proliferation of HCT-116 MTAP wild-type cells (Cell-Titer Glo); format: cell-based; conditions: 8 days
Method in brief: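 MTAP wild-type HCT-116 cells were seeded, cultured overnight and then exposed to compound from 10,000 nM down in a 10-point, 3-fold series (0.1% DMSO). Plates were incubated 8 days at 37°C, 5% CO2. Proliferation was read by Cell-Titer Glo viability luminescence.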

U87MG MTAP(-/-) cells = experiment: Inhibition of proliferation of U87MG MTAP(-/-) cells (CellTiter-Glo); format: cell-based; conditions: cell proliferation, 6 days
Method: Test 7: Assay for Inhibitory Activity of Compounds against U87MG MTAP(-/-) Cell Proliferation
Materials and Cells: The U87MG MTAP(-/-) cell line was purchased from ATCC (USA). Cell culture media, fetal bovine serum (FBS), and penicillin-streptomycin were purchased from Thermo Fisher Scientific (USA). 384-well plates were purchased from PerkinElmer (USA). The CellTiter-Glo assay kit was purchased from Promega (USA).
Cell Culture: U87MG MTAP(-/-) cells were cultured in a medium supplemented with 10% fetal bovine serum (FBS) and 1% penicillin-streptomycin at 37°C with 5% CO2. Only cells in the logarithmic growth phase were used for experiments.
Cell Proliferation Inhibition Assay: The antiproliferative activity of the compounds against U87MG MTAP(-/-) cells was assessed using the CellTiter-Glo assay kit. Cell suspensions were adjusted to the appropriate density and seeded into 384-well plates at a volume of 40 µL per well, then incubated overnight at 37°C with 5% CO2. Compounds (40 nL) were added to each well to achieve final concentrations ranging from 0 to 10,000 nM (starting concentration 10,000 nM, 3-fold serial dilutions, 10 dose points), with a final DMSO concentration of […]. The cell plates were incubated at 37°C with 5% CO2 for 6 days. Subsequently, 40 µL of CellTiter-Glo reagent was added to measure cell viability. Paclitaxel was used as a control compound.

[3] = Mouse pharmacokinetic experiment (IV and PO, plasma); format: in vivo, ICR male mice; conditions: male, mouse, plasma; ICR mice, PO(10mg/kg) vs IV(3mg/kg); read-out: Bioavailability F (%)
Method: II. Mouse Pharmacokinetic Experiment
The compounds used in this experiment are specific embodiments of the present invention, with reference to compound AMG473 as an example from Amgen's patent WO 2022/169948A1, identified as example 473.
ICR male mice, N=3/group; sourced from Zhejiang Vital River Laboratory Animal Technology Co., Ltd.
3. Drug Preparation and Administration
Single oral (PO) administration to ICR mice: Compounds were dissolved in dimethyl sulfoxide, added to polyethylene glycol 400 and sterile water, and then adjusted to a clear solution with a small amount of 1 mol/L hydrochloric acid. After overnight fasting, the mice were orally gavaged with a dose of 10 mg/kg. Single intravenous (IV) administration to ICR mice: Compounds were dissolved in dimethyl sulfoxide, added to polyethylene glycol 400 and sterile water, and then adjusted to a clear solution with a small amount of 1 mol/L hydrochloric acid. After overnight fasting, the mice received tail vein injections with a dose of 3 mg/kg.
Approximately 30 µL/time point blood samples were collected via the tail vein. Potassium ethylenediaminetetraacetate was used as an anticoagulant, and samples were centrifuged at 4000 g/min for 5 minutes at 4°C within 1 hour. Blood sampling time points were 0.0833 (IV), 0.25, 0.5, 1, 2, 4, 6, 8, 24 hours. Samples were stored in a -20°C freezer.
Plasma samples (30µL, 10µL sample + 20µL blank plasma) were mixed with 200µL ice-cold acetonitrile containing internal standards. After vortexing for 30 seconds, samples were centrifuged at 4000g/min for 20 minutes. One hundred microliters of the supernatant were transferred to a 96-well plate, followed by the addition of 200µL ultrapure water. After vortexing for 30 seconds, 5µL or 10µL were injected into LC-MS/MS for analysis. Table 7: Pharmacokinetic Data

| Compound | IC50 ([1]; Homo sapiens, HCT-116, 192 h) | IC50 ([2]; Homo sapiens, HCT-116, 192 h) | IC50 (U87MG MTAP(-/-) cells; Homo sapiens, U-87 MG, 144 h) | IC50 [1] | IC50 [2] | IC50 (U87MG MTAP(-/-) cells) | bioavailability [3] |
| --- | --- | --- | --- | --- | --- | --- | --- |
| C[C@H]1OC[C@@H](N(C)C(=O)c2cc3c(cn2)nc(N)c2cncn23)c2ccc(C(F)(F)F)nc21 [Example 35, 4-amino-N-methyl-N-((5S,8R)-8-methyl-2-(trifluoromethyl)-5,8-dihydro-6H-pyrano[3,4-b]pyridin-5-yl)imida zo[1,5-a]pyrido[3,4-e] pyrazine-8-carboxamide] | 23.2 nM | 2230 nM | 34.8 nM | – | – | – | – |
| CN(C(=O)c1cc2c(cc1C(F)(F)F)nc(N)c1cncn12)[C@@H]1COc2cc(C(F)(F)F)ccc21 [Example 36, (S)-4-amino-N-methy 1-7-(trifluoromethyl)-N-(6-(trifluoromethyl) -2,3-dihydrobenzofuran-3-yl)imidazo[1,5-a] quinoxaline-8-carbox amide] | 36 nM | 5130 nM | 343 nM | – | – | – | – |
| CN(C(=O)c1cc2c(cc1F)nc(N)c1cncn12)[C@@H]1COc2cc(S(C)(=O)=O)ccc21 [Example 38, (S)-4-amino-7-fluoro-N-methyl-N-(6-(methylsulfonyl)-2,3-dihydrobenzofuran-3-yl)imi dazo[1,5-a]quinoxaline-8-carboxamide] | 30 nM | 4060 nM | 443 nM | – | – | – | – |
| Cc1ncc2c(N)nc3ccc(C(=O)N(C)[C@@H]4COc5cc(C(F)(F)F)ccc54)cc3n12 [Example 39, (S)-4-amino-N,1-dime thyl-N-(6-(trifluoromethyl)-2,3-dihydrobenzofuran-3-yl)imidazo[1 ,5-a]quinoxaline-8-carboxamide] | 15.9 nM | 2040 nM | 176 nM | – | – | – | – |
| Cc1ncc(-c2ccc3c(c2)OC[C@H]3N(C)C(=O)c2cc3c(cc2F)nc(N)c2cncn23)cn1 [Example 40, (S)-4-amino-7-fluoro-N-methyl-N-(6-(2-methylpyrimidin-5-yl)-2,3-dihydrobenzofuran-3-yl)imidazo[1,5-a]qu inoxaline-8-carboxamide] | 32.1 nM | 9200 nM | 153 nM | – | – | – | – |
| CN(C(=O)c1ccc2nc(N)c3cncn3c2c1)C1COc2cc(S(F)(F)(F)(F)F)ccc21 (stereo not drawn) [Example 45, 4-amino-N-methyl-N-(6-(pentafluoro-λ^6-sulfaneyl)-2,3-dihydrobenzofuran-3-yl)imidaz o[1,5-a]quinoxaline-8-carboxamide] | 10.3 nM | 947 nM | 60.6 nM | – | – | – | – |
| CN(C(=O)c1ccc2nc(N)c3cncn3c2c1)[C@@H]1COc2cc(-c3cncc(C(F)(F)F)c3)ccc21 [Example 47, (S)-4-amino-N-methy 1-N-(6-(5-(trifluoromethyl)pyridin-3-yl)-2,3-dihydrobenzofuran-3-yl)imidazo[1,5-a]quin oxaline-8-carboxamide] | 17.7 nM | 4100 nM | 475 nM | – | – | – | – |
| CCN(C(=O)c1ccc2nc(N)c3cncn3c2c1)[C@@H]1COc2cc(C(F)(F)F)ccc21 [Example 55, (S)-4-amino-N-ethyl-N-(6-(trifluoromethyl) -2,3-dihydrobenzofuran-3-yl)imidazo[1,5-a] quinoxaline-8-carbox amide] | 11.8 nM | 1220 nM | 74.9 nM | – | – | – | – |
| CN(C(=O)c1ccc2nc(N)c3cncn3c2c1)[C@@H]1COc2cc(OC(F)(F)F)ccc21 [Example 56, (S)-4-amino-N-methy 1-N-(6-(trifluoromethoxy)-2,3-dihydrobenzofuran-3-yl)imidazo[1,5-a]quinoxaline-8-car boxamide] | 15.9 nM | 1530 nM | 108 nM | – | – | – | – |
| [2H]C([2H])([2H])N(C(=O)c1cc2c(cn1)nc(N)c1cncn12)[C@@H]1COc2cc(C(F)(F)F)ccc21 [Example 75, (S)-4-amino-N-(methyl-d3)-N-(6-(trifluoromethyl)-2,3-dihydrobenzofuran-3-yl)imidazo[1,5-a]pyrido[3,4-e]pyrazine-8-carb oxamide] | 7.3 nM | 1170 nM | 72.1 nM | – | – | – | – |
| CN(C(=O)c1ccc2nc(N)c3cncn3c2c1)[C@@H]1COc2cc(C(F)(F)F)ccc21 [Example 79, (S)-4-amino-N-methy 1-N-(6-(trifluoromethyl)-2,3-dihydrobenzofuran-3-yl)imidazo[1,5-a]quinoxaline-8-carbo xamide-3-d] | – | – | – | 5.6 nM | 1300 nM | 83.3 nM | – |
| COc1ccc2c(c1)OC[C@H]2N(C)C(=O)c1cc2c(cc1F)nc(N)c1cncn12 [Example 80, (S)-4-amino-7-fluoro-N-(6-methoxy-2,3-dihydrobenzofuran-3-yl)-N-methylimidazo[1,5-a]quinoxaline-8-carboxamide] | 39.3 nM | 9170 nM | 376 nM | – | – | – | – |
| CN(C(=O)c1cc2c(cc1F)nc(N)c1cncn12)[C@@H]1COc2cc(-c3ccnn3C)ccc21 [Example 117, (S)-4-amino-7-fluoro-N-methyl-N-(6-(1-methyl-1H-pyrazol-5-yl) -2,3-dihydrobenzofuran-3-yl)imidazo[1,5-a] quinoxaline-8-carbox amide] | 6.6 nM | 617 nM | 61.3 nM | – | – | – | – |
| Cc1cc(-c2ccc3c(c2)OC[C@H]3N(C)C(=O)c2cc3c(cc2F)nc(N)c2cncn23)on1 [Example 119, (S)-4-amino-7-fluoro-N-methyl-N-(6-(3-methylisoxazol-5-yl)-2,3-dihydrobenzofuran-3-yl)imidazo[1,5-a]qui noxaline-8-carboxamide] | 13.5 nM | 1310 nM | 101 nM | – | – | – | – |
| COC(=O)c1ccc2c(c1)OC[C@H]2N(C)C(=O)c1ccc2nc(N)c3cncn3c2c1 [Example 122, methyl (S)-3-(4-amino-N-methylimidazo[1,5-a]quinoxaline-8-carboxamido)-2,3-dihydrobenzofuran-6-carboxylate] | 50.6 nM | > 10000 nM | 777 nM | – | – | – | – |
| CCN(C(=O)c1cc2c(cc1F)nc(N)c1cncn12)[C@@H]1COc2cc(C(F)(F)F)ccc21 [Example 124, (S)-4-amino-N-ethyl-7-fluoro-N-(6-(trifluor omethyl)-2,3-dihydrobenzofuran-3-yl)imid azo[1,5-a]quinoxaline-8-carboxamide] | 6.5 nM | 634 nM | 64.4 nM | – | – | – | – |
| CN(C(=O)c1ccc2nc(N)c3cncn3c2c1)[C@@H]1COc2cc(C(F)(F)C(F)(F)F)ccc21 [Example 130, (S)-4-amino-N-methy 1-N-(6-(perfluoroethyl)-2,3-dihydrobenzofuran-3-yl)imidazo[1,5-a]quinoxaline-8-carbox amide] | 5.8 nM | 1290 nM | – | – | – | – | 77.5% |
| (S)-4-amino-7-fluoro-N-methyl-N-(6-(1-me thyl-1H-pyrazol-4-yl) -2,3-dihydrobenzofura n-3-yl)imidazo[1,5-a] quinoxaline-8-carbox amide [Example 34] | – | – | – | 29.6 nM | 6570 nM | 179 nM | – |
| (S)-4-amino-N-methyl-N-(6-(trifluoromethyl)-2,3-dihydrobenzofuran-3-yl)imidazo[1,5-a]quinoxaline-8-carboxamide-1-d [Example 78] | – | – | – | 7.1 nM | 2070 nM | 211 nM | – |

— patent publication EP4775208A1, “USE OF PRMT5 INHIBITOR IN TREATMENT OF TUMORS OR CANCERS” (Apeiron Therapeutics (Hong Kong) Ltd., priority 2023, dated 2025)
